From patent publication US7198811B2, “Compositions for the preservation of fruits and vegetables” (University of Guelph, priority 2002, dated 2007) come the findings set out here.

The test system of the first experiment is Vista Cherries. Nature of the experiment: Postharvest dips of compositions or individual components on Vista cherries. Also: dipped 2.5 min. It counts as in vivo. To be noted: dipped […], concentration as printed per treatment; stored 4° C. in air. As for the experimental part: Samples were allowed to dry at room temperature and stored at 4° C. in air. Evaluations were conducted two weeks and four weeks after treatment. The results given are mean of twenty sample values.
For the molecule `O=C1O[C@H]([C@@H](O)CO)C(O)=C1O` [Ascorbic Acid], the “Firmness (kg) 2 weeks” value came to 1.2 kg and the “Firmness (kg) 4 weeks” value is listed as 1.12 kg.
For `c1ccc(CNc2ncnc3nc[nH]c23)cc1` [BA, benzyladenine], the “Firmness (kg) 2 weeks” value is 1.24 kg, the “Firmness (kg) 4 weeks” value amounted to 1.14 kg and the “Soluble Solids (%) 2 weeks” value is 13.8%.
`[Ca+2].[Cl-].[Cl-]` [CaCl2, calcium chloride]: the “Firmness (kg) 2 weeks” value is 1.26 kg and the “Firmness (kg) 4 weeks” value worked out at 1.09 kg.
For `CC(C)=CCC/C(C)=C/CO` [Geraniol], the “Firmness (kg) 2 weeks” value was found to be 1.01 kg, the “Firmness (kg) 4 weeks” value turned out to be 1.24 kg and the “Soluble Solids (%) 4 weeks” value was 17%.
Consider `CC(=O)OC/C=C(\C)CCC=C(C)C` [Geranyl Acetate], for which the “Firmness (kg) 2 weeks” value is 1.21 kg, the “Firmness (kg) 4 weeks” value turned out to be 1.12 kg and the “Soluble Solids (%) 2 weeks” value came to 17%.
As to `CCCCCC=O` [Hexanal], the “Firmness (kg) 2 weeks” value was determined as 1.24 kg and the “Firmness (kg) 4 weeks” value is listed as 1.16 kg.
With `Cc1c(C)c2c(c(C)c1O)CC[C@@](C)(CCC[C@H](C)CCC[C@H](C)CCCC(C)C)O2` [α-tocopherol], the “Firmness (kg) 2 weeks” value amounted to 1.21 kg, the “Firmness (kg) 4 weeks” value is given as 1.12 kg and the “Soluble Solids (%) 4 weeks” value stood at 16.7%.

A further experiment relates to Cortland apples. Nature of the experiment: Superficial scald and softening in Cortland apples versus duration of dip treatment. It counts as in vivo. To be noted: 1 minute, 1500 ppm; CA storage 9 months. As for the experimental part:
The effects of antioxidant formulation of the present invention, and subgroups of its chemical components on post harvest qualities of Cortland apples were investigated.
The effect of the duration of dip treatment of Cortland apples using the antioxidant formulation (Example 1, Solution B) is presented in Table 3C. Ten ml of the formulation of was diluted to a liter. […] Twenty randomly selected apples from each of the treatments were removed and kept at room temperature for a week before evaluations were conducted.
Ten ml of the concentrate of the EAM formulation was diluted to one liter to form the final solution. […] Two bushels of apples were dipped in 40 liters of solution for each time period and subjected to controlled atmosphere storage as defined above. Apples were brought out after 9 months of storage. Twenty apples from each treatment were picked randomly from two independent sets, and left at room temperature for one week before evaluating for scald and softening.
Ten ml of the concentrate of the AOX formulation was diluted to one liter to form the final solution. […] Two bushels of apples were dipped in 40 liters of solution for each time period and subjected to controlled atmosphere storage as defined above. Apples were brought out after 9 months of storage. […]
Take `c1ccc(Nc2ccccc2)cc1` [DPA, diphenylamine]: the Softening % was 25% and the Superficial scald % is 35%.
